# From ChEMBL document CHEMBL6121062, “Discovery, Optimization, and Preclinical Pharmacology of EP652, a METTL3 Inhibitor with Efficacy in Liquid and Solid Tumor Models” (J Med Chem, 2025)
# Assays:
# METTL3/METTL14 = METTL3/METTL14 (Homo sapiens, UniProt Q86U44); experiment: Displacement of [3H]-SAM from METTL3/METTL14 (unknown origin) using 5'biotinylated-UACACUCGAUCUGGACUAAAGGUGCUC-3' RNA as substrate preincubated for 10 mins followed by substrate/[3H]-SAM addition measured after 90 mins by SPA; assay type: protein-complex assay
# METTL3/METTL14, sequence (Q86U44 whole entry): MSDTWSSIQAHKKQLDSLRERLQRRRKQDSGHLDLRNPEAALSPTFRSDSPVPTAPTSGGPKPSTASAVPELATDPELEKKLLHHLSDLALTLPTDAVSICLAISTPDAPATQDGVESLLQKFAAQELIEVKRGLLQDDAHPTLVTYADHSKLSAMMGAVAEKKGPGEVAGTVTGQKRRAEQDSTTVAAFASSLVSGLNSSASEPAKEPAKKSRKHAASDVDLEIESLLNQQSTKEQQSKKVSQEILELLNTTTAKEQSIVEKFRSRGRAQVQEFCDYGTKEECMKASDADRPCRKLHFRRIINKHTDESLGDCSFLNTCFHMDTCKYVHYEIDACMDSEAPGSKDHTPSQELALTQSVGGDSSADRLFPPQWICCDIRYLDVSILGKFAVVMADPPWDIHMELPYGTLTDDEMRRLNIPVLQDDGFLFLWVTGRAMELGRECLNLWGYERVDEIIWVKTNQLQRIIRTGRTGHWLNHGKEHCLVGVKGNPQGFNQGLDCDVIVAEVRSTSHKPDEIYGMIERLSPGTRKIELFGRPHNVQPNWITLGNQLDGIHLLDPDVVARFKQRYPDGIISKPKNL
# METTL3/METTL14, sequence (Q9HCE5 whole entry, further chain): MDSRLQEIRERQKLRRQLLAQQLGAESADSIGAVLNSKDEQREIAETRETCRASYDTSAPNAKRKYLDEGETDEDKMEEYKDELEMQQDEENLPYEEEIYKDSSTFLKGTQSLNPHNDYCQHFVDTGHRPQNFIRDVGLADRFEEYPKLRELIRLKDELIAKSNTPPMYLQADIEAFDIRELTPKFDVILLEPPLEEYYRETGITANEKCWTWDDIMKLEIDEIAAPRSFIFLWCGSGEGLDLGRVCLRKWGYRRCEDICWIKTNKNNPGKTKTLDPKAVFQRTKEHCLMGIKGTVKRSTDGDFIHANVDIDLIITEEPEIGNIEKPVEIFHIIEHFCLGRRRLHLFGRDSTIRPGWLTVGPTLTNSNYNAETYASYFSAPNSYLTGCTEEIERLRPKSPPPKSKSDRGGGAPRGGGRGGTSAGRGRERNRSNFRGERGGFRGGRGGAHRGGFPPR
# [1] = Lipophilicity, logD of compound in 1-octanol/PBS at pH 7.4 incubated for 24 hrs by HPLC analysis; assay type: physicochemical
# Kasumi 1 = experiment: Antiproliferative activity against human Kasumi 1 cells assessed as inhibition of cell viability incubated for 72 hrs by ATPlite assay; assay type: functional, cell-based; conditions: Kasumi 1, 72 h
# [2] = Unbound AUC in Sprague-Dawley rat at 1 mg/kg/day, iv measured for 24 hrs by LC-MS/MS analysis; assay type: ADME, organism-based; conditions: in vivo
# [3] = Unbound clearance in Sprague-Dawley rat at 1 mg/kg/day, iv measured for 24 hrs by LC-MS/MS analysis; assay type: ADME, organism-based; conditions: in vivo
Compound,IC50 (METTL3/METTL14) [nM],logD at 24 h [1],fAUC [2] [µM·min],CL free [3] [mL/min/kg],IC50 (Kasumi 1) [nM]
COc1cncc(-c2cn(Cc3ccc(N4CC5(CCCC5NCC5CCC5)C4)nn3)nn2)c1 (configuration not stated),205,1.85,–,–,> 30000
COc1cc(-c2cn(Cc3ccc(N4CCC(NCC5CCC5)CC4)nn3)nn2)c2cn[nH]c2c1,563,1.64,–,–,> 30000
COc1cncc(-c2cn(Cc3ccc(N4CC5(CCC5NCC5CCC5)C4)nn3)nn2)c1 (configuration not stated),2300,1.54,–,–,> 30000
COc1cc(-c2cn(Cc3ccc(N4CCC[C@@H](NC5CC56CCC6)C4)nn3)nn2)c2cn[nH]c2c1 (some centres not stated),4,3.06,–,–,1100
CC(n1cc(-c2cccn3cncc23)nn1)n1ccc(N2CCC[C@@H](NCC3CCC3)C2)cc1=O (some centres not stated),8,1.53,–,–,5400
COc1cncc(-c2cn(Cc3ccc(N4CCC[C@@H](NCC5CCC5)C4)cc3)nn2)c1,6,2.04,–,–,875
COc1cncc(-c2cn(Cc3ccc(N4CCC[C@@H](NCC5CCC5)C4)nc3)nn2)c1,7,1.46,–,–,1200
COc1cc(-c2cn(Cc3ccc(N4CCC[C@@H](NCC5CC5)C4)nn3)nn2)c2cn[nH]c2c1,2,1.63,–,–,1050
COc1cc(-c2cn(Cc3ccc(N4CCC[C@@H](NC(C)C5CCC5)C4)nn3)nn2)c2cn[nH]c2c1 (some centres not stated),–,2.14,–,–,10100
COc1cc(-c2cn(Cc3ccc(N4CCC[C@@H](NC(=O)C5CCC5)C4)nn3)nn2)c2cn[nH]c2c1,–,2.61,–,–,> 30000
COc1cncc(-c2cn(C3(c4ccc(N5CCC[C@@H](NCC6CCC6)C5)nn4)CC3)nn2)c1,25,1.7,–,–,9880
COc1cncc(-c2cn(Cc3ccc(C4CCCC(NCC5CCC5)C4)nn3)nn2)c1 (configuration not stated),215,1.55,–,–,> 30000
COc1cc(-c2cn(Cc3ccc(N4CCC[C@@H](N(C)CC5CCC5)C4)nn3)nn2)c2cn[nH]c2c1,–,2.59,–,–,3130
COc1cc(-c2cn(Cc3ccc(N4CCC[C@@H](N)C4)nn3)nn2)c2cn[nH]c2c1,243,1.01,–,–,> 30000
COc1cc(-c2cn(Cc3ccc(N4CCC[C@@H](NC5CCCC5)C4)nn3)nn2)c2cn[nH]c2c1,–,1.88,–,–,3430
COc1cncc(-c2cn(Cc3ccc(N4CCC[C@@H](CNC5CCC5)C4)nn3)nn2)c1,124,0.88,–,–,> 30000
COc1cc(-c2cn(Cc3ccc(N4CCC[C@@H](NC5CCC5)C4)nn3)nn2)c2cn[nH]c2c1,5,1.71,–,–,2740
CC(n1cc(-c2cncc(N3CCCC3)c2)nn1)n1ccc(N2CCC[C@@H](NCC3CC3)C2)cc1=O (some centres not stated),3,1.93,1.3,1487,11
COc1cc(-c2cn(Cc3ccc(N4CCC[C@@H](NCC(C)C)C4)nn3)nn2)c2cn[nH]c2c1,3,1.92,–,–,1760
COc1cncc(-c2cn(C(c3ccc(N4CCC[C@@H](NCC5CCC5)C4)nn3)C(F)(F)F)nn2)c1 (some centres not stated),12,2.43,–,–,12200
CC(n1cc(-c2cncc(N(C)C)n2)nn1)n1ccc(N2CCC[C@@H](NCC3CC3)C2)cc1=O (some centres not stated),1,1.17,5.2,369,96
COc1cncc(-c2cn(Cc3ccc(N4CCCCC(NCC5CCC5)C4)nn3)nn2)c1 (configuration not stated),50,1.18,–,–,> 30000
COc1cc(-c2cn(Cc3ccc(N4CCC[C@H](NCC5CCC5)C4)nn3)nn2)c2cn[nH]c2c1,24,1.89,–,–,3400
COc1cc(-c2cn(Cc3ccc(N4CCC(NCC5CCC5)C4)nn3)nn2)c2cn[nH]c2c1 (configuration not stated),235,1.95,–,–,15300
COc1cncc(-c2cn(Cc3ccc(N4CCCC(NCC5CCC5)C4=O)nn3)nn2)c1 (configuration not stated),> 30000,1.15,–,–,> 30000

# Second part, led by results:
IC50 (METTL3/METTL14) [nM],logD at 24 h [1],fAUC [2] [µM·min],CL free [3] [mL/min/kg],Compound,IC50 (Kasumi 1) [nM]
13,1.52,–,–,COc1cncc(-c2nnn(C(C)n3ccc(N4CCC[C@@H](NCC5CCC5)C4)cc3=O)n2)c1 (some centres not stated),5500
–,0.97,–,–,CC(n1cc(-c2cncc(C#N)c2)nn1)n1ccc(N2CCC[C@@H](NCC3CCC3)C2)cc1=O (some centres not stated),> 30000
11,2.26,–,–,COc1cncc(-c2cc(C(C)n3ccc(N4CCC[C@@H](NCC5CCC5)C4)cc3=O)sn2)c1 (some centres not stated),1720
–,1.79,2.2,803,CC(n1cc(-c2cncc(N(C)C)c2)nn1)n1ccc(N2CCC[C@@H](NCC3CCC3)C2)cc1=O (some centres not stated),44
3,1.45,–,480,COc1cncc(-c2nnc(C(C)n3ccc(N4CCC[C@@H](NCC5CCC5)C4)cc3=O)s2)c1 (some centres not stated),506
39,0.87,–,–,CC(n1cc(-c2cccnc2)nn1)n1ccc(N2CCC[C@@H](NCC3CCC3)C2)cc1=O (some centres not stated),8120
> 30000,1.84,–,–,COc1cncc(-c2cnn(C(C)n3ccc(N4CCC[C@@H](NCC5CCC5)C4)cc3=O)n2)c1 (some centres not stated),> 30000
> 30000,1.69,–,–,COc1ccc(-c2cn(C(C)n3ccc(N4CCC[C@@H](NCC5CCC5)C4)cc3=O)nn2)cn1 (some centres not stated),> 30000
5,0.62,–,–,COc1cnnc(-c2cn(C(C)n3ccc(N4CCC[C@@H](NCC5CCC5)C4)cc3=O)nn2)c1 (some centres not stated),5420
3,1.65,6.1,413,COc1cncc(-c2cn(C(C)n3ccc(N4CCC[C@@H](NCC5CCC5)C4)cc3=O)nn2)n1 (some centres not stated),656
26,1.06,–,–,COc1cncc(-c2cn(Cn3ncc(N4CCC[C@@H](NCC5CCC5)C4)cc3=O)nn2)c1,11800
5,1.37,–,–,COc1cncc(-c2ncn(C(C)n3ccc(N4CCC[C@@H](NCC5CCC5)C4)cc3=O)n2)c1 (some centres not stated),1610
7,1.63,–,–,COc1cncc(-c2cc(C(C)n3ccc(N4CCC[C@@H](NCC5CCC5)C4)cc3=O)on2)c1 (some centres not stated),1840
1,1.69,4.7,449,CC(n1cc(-c2cncc(N(C)C)n2)nn1)n1ccc(N2CCC[C@@H](NCC3CCC3)C2)cc1=O (some centres not stated),35
7,1.12,–,–,COc1cncc(-n2cc(C(C)n3ccc(N4CCC[C@@H](NCC5CCC5)C4)cc3=O)nn2)c1 (some centres not stated),1930
2,1.8,3.3,529,CC(n1cc(-c2cncc(-n3cccn3)c2)nn1)n1ccc(N2CCC[C@@H](NCC3CCC3)C2)cc1=O (some centres not stated),301
–,2.22,–,–,COc1cccc(-c2cn(C(C)n3ccc(N4CCC[C@@H](NCC5CCC5)C4)cc3=O)nn2)c1 (some centres not stated),> 30000
1,1.6,–,608,COc1cncc(-n2cc(C(C)n3ccc(N4CCC[C@@H](NCC5CCC5)C4)cc3=O)cn2)c1 (some centres not stated),306
> 30000,1.25,–,–,COc1cncc(-n2cnc(C(C)n3ccc(N4CCC[C@@H](NCC5CCC5)C4)cc3=O)c2)c1 (some centres not stated),> 30000
–,1.52,–,487,COc1cncc(-c2cn(C(C)n3ccc(N4CCC[C@@H](NCC5CCC5)C4)cc3=O)cn2)c1 (some centres not stated),453
